From article PMC10525132, “Potent Antioxidant and Anti-Tyrosinase Activity of Butein and Homobutein Probed by Molecular Kinetic and Mechanistic Studies” (Antioxidants, 2023)

Columns and labels:
[1] = Radical equilibration EPR (ReqEPR) for the O-H bond dissociation enthalpy; assay type: physicochemical
Method: Deoxygenated acetonitrile solutions containing the phenols (0.01–0.001 M) and di-tert-butyl peroxide (10% v/v) were sealed under nitrogen in a 2 mm ID suprasil quartz EPR tube. The sample was inserted in the thermostatted (30 °C) cavity of an X-band EPR spectrometer and photolyzed with a mercury–xenon lamp (240–400 nm, max 4500 mW/cm^2). Spectra were recorded with the following settings: modulation amplitude 0.2–1 Gauss, sweep width 30–60 Gauss, modulation frequency 100 kHz, frequency 9.76 GHz, sweep time 60 s, and microwave power 0.1–1 mW. Measured g-factors were corrected with respect to that of TEMPO (g = 2.0064) and of DPPH radical. In ReqEPR experiments, mixtures of TBP and butein were analyzed to obtain the molar ratio of the two equilibrating radicals by comparison of the digitized experimental spectra with computer-simulated ones, as previously described. This afforded the equilibrium constant, Keq. Different irradiation power levels (20% to 100%) and different ratios of the two phenols were tested to guarantee that the two species were at equilibrium.
The reactivity of (phenolic) chain-breaking antioxidants toward formal hydrogen atom transfer (HAT) to a radical such as peroxyl radicals is dictated by the strength of the phenolic O-H bond being broken, i.e., by its bond dissociation enthalpy (BDEOH), and by the steric hindrance in ortho position to the reactive OH [40, 41]. Indeed, there are well-established Evans–Polanyi linear free-energy correlations between the BDEOH and the inhibition rate constant kinh for phenolic antioxidants. One very accurate method to measure the BDEOH is via radical equilibration experiments using electron paramagnetic resonance spectroscopy, the ReqEPR technique. It consists of photolyzing the “unknown” phenol to be studied (^UPhOH) in a mixture with a reference phenol (^RPhOH) in the cavity of the EPR spectrometer with the addition of a peroxide (e.g., di-tert-butylperoxide) as a photochemical initiator. Analysis and deconvolution of the EPR spectrum containing both equilibrating radical species affords the equilibrium constant Keq (see Figure 3), which in turn allows determining the ∆G° of equilibration. Since it has been shown that ∆S° is negligible for such an equilibrium, this affords the BDEOH of ^UPhOH if the value is known for ^RPhOH (Figure 3A).
To convert this value into a gas-phase equivalent, it is necessary to correct for the effect of the solvent, which increases the apparent BDE value by H-bonding to the phenols (see Figure 3B). Such solvent effects can be accounted for quantitatively, as detailed in Figure 3B, by using Abraham’s solvatochromic parameters α2^H and β2^H, describing, respectively, the H-bond donating ability of the phenol and the H-bond accepting ability of the solvent. Considering that the solvent effect is negligible for TBP due to steric hindrance by the t-butyl groups in ortho [40], that α2^H for catechol is 0.73 and β2^H for acetonitrile is 0.39 [42], the DBE measured in acetonitrile must be downscaled by −1.4 kcal/mol to afford BDEOH = 78.4 ± 0.2 kcal/mol for butein in apolar solvent/gas-phase.

mTYR = assay: Stability toward air and mTYR, oxygen consumption; settings: 0.1 mM, pH 6.8, 30 °C, axes [O2] M vs Time / s
[2] = Inhibited autoxidation of methyl linoleate in Triton X-100 micelles (O2 uptake kinetics); settings: for n (stoichiometric factor of peroxyl radical trapping): MeLin/Triton X-100 micelles
Method: Autoxidation studies were performed as previously described, with slight modifications. In a typical experiment, 2.5 mL of air-saturated buffered (PBS, 50 mM, pH 7.4) aqueous dispersion of MeLin (final concentration 2.74 mM) in Triton™ X-100 (final concentration 16 mM) micelles were prepared by vortex mixing. A fresh stock solution of AAPH was added (final concentration 2.5 mM), immediately followed by addition (5–30 μL) of a stock solution of the antioxidant in acetonitrile (final concentration of 1–20 μM) and by additional vortex mixing (5 s). The mixture was sealed in a 2 mL glass vial provided with a PTFE-coated stirring bar and capped with the O2 sensor. The sample was equilibrated at 37 °C in a thermostatted bath equipped with a sealed magnetic stirrer, and oxygen concentration was monitored with time as previously described. Oxygen consumption in the absence of antioxidants was compared with that recorded in the presence of butein, homobutein, or α-tocopherol (α-TOH) as the reference antioxidant. […]. The stoichiometric factor n was determined from the length of the inhibited period τ by Equation (3). The rate of initiation Ri was determined in preliminary experiments using α-TOH as the inhibitor (n = 2) by Equation (3). (1) −d[O2]/dt=kp[RH]Ri/nkinh[AH]+Ri (2) R0/Rinh−Rinh/R0=nkinh[AH]/2ktRi (3) n=Riτ/[AH]
To study the antioxidant activity of butein and homobutein on quantitative grounds, we performed inhibited autoxidation studies using biomimetic neutral micelles of methyl linoleate (MeLin) in aqueous Triton™ X-100 (with 50 mM PBS, pH 7.4, 37 °C), since it is a well-validated model we and others used in previous studies. The reaction kinetics was followed by monitoring oxygen consumption via miniaturized NIR-fluorescence-quenching O2 probes, according to a previously validated protocol, both in the absence and in the presence of different concentrations of butein or homobutein. The reaction was initiated thermally in the aqueous phase by the controlled decomposition of the azo compound AAPH so as to clearly distinguish the chain-breaking mechanism from other efficacies based on interference with the initiation process (e.g., the Fenton reaction by metal chelation) and α-TOH was used as the reference antioxidant.

[3] = AAPH (2.5 mM) initiated autoxidation of MeLin/Triton X-100 micelles, 37 °C, pH 7.4
[4] = MeLin in Triton X-100 micelles, pH 7.4, 37 °C

In the case of COc1cc(/C=C/C(=O)c2ccc(O)cc2O)ccc1O [Homobutein, (E)-1-(2,4-dihydroxyphenyl)-3-(4-hydroxy-3-methoxyphenyl)prop-2-en-1-one], the BDEOH ([1]; estimated from the value for butein by additive contribution of substituents) is reported as 82.6 ^1 kcal/mol, the BDEOH ([1]; estimated from the value for butein by additive contribution of substituents, listed as HB) is reported as 82.6 kcal/mol and the BDEOH ([1]; estimated from the value for butein by additive contribution of substituents, listed as homobutein) is reported as ~ 82.6 kcal/mol. For the same compound, the “oxygen consumption, zero order regression slope b[1]” value (mTYR; with tyrosinase 7 U/ml) was -3.664e-9, the “oxygen consumption, zero order regression slope b[1]” value (mTYR; without enzyme) was -2.859e-9 and the “kinh (inhibition rate constant)” value [2, 3] was 2.8 ± 0.9 10^3 M^−1s^−1. The “kinh (inhibition rate constant)” value [2, 4] was “(2.8 ± 0.9) × 10^3 M^−1s^−1” and the “kinh (inhibition rate constant)” value ([2]; MeLin in Triton X-100 micelles, pH 7.4, 37 °C, listed as homobutein) was 2800 M⁻¹ s⁻¹.
For O=C(/C=C/c1ccc(O)c(O)c1)c1ccc(O)cc1O [Butein, (E)-1-(2,4-dihydroxyphenyl)-3-(3,4-dihydroxyphenyl)prop-2-en-1-one], the BDEOH ([1]; ReqEPR vs TBP, corrected for solvent to apolar solvent/gas-phase) was 78.4 ± 0.2 kcal/mol, the BDEOH ([1]; ReqEPR vs TBP, corrected for solvent to apolar solvent/gas-phase, listed as butein) was 78.4 kcal/mol and the “BDEOH higher compared to α-TOH” value ([1]; difference to α-TOH) was 1.3 kcal/mol. For the same compound, the “Keq (radical equilibration with TBP)” value ([1]; in acetonitrile at 298 K) was 1.64 ± 0.63, the BDEOH ([1]; in acetonitrile at 298 K, not corrected for solvent) was 79.8 ± 0.2 kcal/mol and the “BDEOH of any OH group in A ring” value ([1]; suggested from structure) was over 86 kcal/mol. The “oxygen consumption, zero order regression slope b[1]” value (mTYR; with tyrosinase 7 U/ml) was -2.789e-9, the “oxygen consumption, zero order regression slope b[1]” value (mTYR; without enzyme) was -1.989e-9 and the “kinh (inhibition rate constant)” value [2, 3] was 29.8 ± 9.2 10^3 M^−1s^−1. For the same compound, the “kinh (inhibition rate constant)” value [2, 4] was “(3.0 ± 0.9) × 10^4 M^−1s^−1”, the “kinh (inhibition rate constant)” value ([2]; MeLin in Triton X-100 micelles, pH 7.4, 37 °C, listed as butein) was 30000 M⁻¹ s⁻¹ and the “n (stoichiometric factor of peroxyl radical trapping)” value ([2]; 37 °C, pH 7.4) was 3.7 ± 1.1. The “n (stoichiometric factor of peroxyl radical trapping)” value ([2]; 37 °C, pH 7.4, listed as butein) was 3.7.
